What was measured:
IL-8 = test: Induced chemokine IL-8 in HaCaT keratinocytes; type: cell-based, human; conditions: Figure 6, 5 µM, tolerogen 10 µg/ml, 6h
Method: • Figure 1: AEA re-uptake inhibition of 2E,4E-dieneamides 1 and 9 into human primary monocytes and U937 cells. […] Data are mean values ± SEM of 3 independent experiments in a sigmoidal dose-response curve. • Figure 2: Concentration-dependent effects of 4 and 5 on FAAH activity. […] The maximal inhibition (32%) of 5 was measured at 1 µM. Data are mean values ± SEM of 3 independent experiments. • Figure 3: Effects of low nM concentrations of N-alkylamide 7 on FAAH activity alone and in combination with the FAAH inhibitor URB597. […] Data are mean values ± SEM of 3 independent experiments. • Figure 4: 1 and 9 inhibit LPS-induced TNF-alpha release into culture medium (measured by ELISA). Human macrophages (10^6 cells) were stimulated with LPS (500 ng/ml) and treated with UCM707 and/or compounds 1 and 9 at 5 µM for 18 h. N = 3 ± SEM. • Figure 5: UCM707 (positive control) and compounds 1 and 9 diminish NO2^- production. Human macrophages (10^6 cells) were stimulated with LPS (500 ng/ml) and treated with UCM707 and/or compounds 1 and 9 at 5 µM for 18 h. Culture supernatants were assayed for nitrite levels, using the Griess reagent as a reflection of NO production. Results are the mean ± SEM of four independent experiments performed in duplicate • Figure 6: In CB receptor expressing human HaCaT keratinocytes (10^6 cells) UCM707 (control) 1 and 9 like the endocannabinoid anandamide (each 5 µM) inhibited tolerogen (10 µg/ml) induced chemokine IL-8 (6h stimulation and incubation). N = 3 ± SEM.

Anandamide transport = Anandamide transport (human) cellular functional assay (assay F); type: cell-based; conditions: human U-937 cells, 0.1 µM [3H]-Anandamide, 20 min (assay F)
Method: Anandamide transport is determined using human U-937 cells as receptor source. [3H]-Anandamide (0.1 Ci/mmol), final concentration 0.1 µM is used as substrate. AM-404 is used as reference compound. Reactions are carried out in KRH buffer (pH 7.4) at 37°C for 20 min. The reaction is terminated by rapid vacuum filtration onto glass fiber filters. Radioactivity trapped onto filters is determined and compared to control values in order to ascertain any interactions of test compound with anandamide uptake (Hiiliard C.J. The movement of N-arachidonylethanolamide (anandamide) across cellular membranes. Chem. Physics Lipids. 2008;108:123-134, with modifications).

[1] = target: T1, human recombinant Fatty acid amide hydrolase (Homo sapiens, UniProt O00519); test: Inhibition of human recombinant FAAH, fluorometric method (assay G); type: biochemical; conditions: human recombinant enzyme, AMC-anandamide substrate (assay G)
T1 sequence (O00519 1-579): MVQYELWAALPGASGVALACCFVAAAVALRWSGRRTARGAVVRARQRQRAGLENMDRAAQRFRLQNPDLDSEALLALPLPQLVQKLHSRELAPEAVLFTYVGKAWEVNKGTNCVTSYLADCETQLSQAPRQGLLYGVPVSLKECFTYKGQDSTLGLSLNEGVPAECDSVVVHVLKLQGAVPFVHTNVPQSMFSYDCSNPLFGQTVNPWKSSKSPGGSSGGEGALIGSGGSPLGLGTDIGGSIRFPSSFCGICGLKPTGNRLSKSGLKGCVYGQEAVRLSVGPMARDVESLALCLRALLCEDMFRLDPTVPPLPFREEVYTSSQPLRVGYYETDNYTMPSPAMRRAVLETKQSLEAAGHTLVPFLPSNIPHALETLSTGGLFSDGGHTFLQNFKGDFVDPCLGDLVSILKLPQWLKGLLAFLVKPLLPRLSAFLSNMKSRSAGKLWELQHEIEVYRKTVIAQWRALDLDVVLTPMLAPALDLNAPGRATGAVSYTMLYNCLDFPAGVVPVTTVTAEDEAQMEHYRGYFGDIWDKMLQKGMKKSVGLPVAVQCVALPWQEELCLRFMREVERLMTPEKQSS
Method: FAAH activity is measured using the modified method described by Omeir et al., Arachidonoyl ethanolamide-[1,2-14C] as a substrate for anandamide amidase. Life Sci. 1995;56(23-24):1999-2005. Human recombinant enzyme is preincubated with reference compound (methylarachidonlyfluorophosphonate, MAFP) and test compounds for 30 min at room temperature in 50 mM Tris containing 1 mM EDTA and 0.1% fatty acid free BSA (pH 8.0). Substrate (7-amino-4-methyl coumarin-arachidonamide, AMC-anandamide) is then added and incubated for 30 min at room temperature. The reaction is stopped by the addition of 2.5 µl of 10 µM URB597. Released 7-amino-4-methyl coumarin (AMC) is detected by fluorometry in order to ascertain any interactions of test compounds with the FAAH enzyme.

Row | Structure (SMILES) | tolerogen induced chemokine IL-8 (IL-8) | AEAT inhibition at 1 µM (Anandamide transport) | FAAH inhibition at 1 µM [1]
1 | CCCCCCC/C=C/C=C/C(=O)NCCO [Example 1, (2E,4E)-N-(2-hydroxyethyl)dodeca-2,4-diene amide] | inhibited | 28 % of control | 9 % of control
2 | CCCCCCC/C=C/C=C/C(=O)NCCc1cccc(OC)c1 [Example 9, (2E,4E)-N-(3-methoxyphenethyl)dodeca-2,4-diene amide] | inhibited | 34 % of control | 16 % of control
